Laboratory results from US10562912B2 (C&C Research Laboratories, priority 2013, dated 2020).

Key:
Format in all cases: cell-based
[1] = tested on: DU-145; test: Cell growth inhibition assay, prostate cancer cell line DU-145; conditions: Homo sapiens, DU-145 prostate cancer cell line
Method in brief: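 Luminescent CellTiter-Glo readout of viable cells after 72–96 h compound exposure (37° C., 5% CO2). Seeding: 3,000 cells/well for DU-145 and HCT116, 5,000 cells/well for SW626. Controls were medium without cells and 0.1% DMSO vehicle.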

[2] = tested on: LNCaP; test: Cell growth inhibition assay, prostate cancer cell line LNCaP (medium with 10 ng/mL IL-6); conditions: Homo sapiens, medium supplemented with 10 ng/mL of IL-6, 10,000 cells/well
[3] = tested on: HEL92.1.7; test: Cell growth inhibition assay, blood cancer cell line HEL92.1.7; conditions: Homo sapiens, HEL 92.1.7, HEL92.1.7 blood cancer cell line
Method in brief: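 Cells were seeded at 3,000/well (HCT116, DU-145) or 5,000/well (SW626 and the others) and exposed to serial compound dilutions for 72 to 96 h at 37 °C under 5% CO2. Viability was read as CellTiter-Glo luminescence against 0.1% DMSO and cell-free wells.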

[4] = target: T1, STAT3 (Homo sapiens, UniProt P40763); test: STAT3 reporter gene assay (luciferase), LNCaP stable cell line (pSTAT3-TA-luc), IL-6 stimulation
T1 construct: plasmid pSTAT3-TA-luc), which contains a stably operating STAT3 promoter; endogenous in cells
T1 sequence (P40763 whole entry): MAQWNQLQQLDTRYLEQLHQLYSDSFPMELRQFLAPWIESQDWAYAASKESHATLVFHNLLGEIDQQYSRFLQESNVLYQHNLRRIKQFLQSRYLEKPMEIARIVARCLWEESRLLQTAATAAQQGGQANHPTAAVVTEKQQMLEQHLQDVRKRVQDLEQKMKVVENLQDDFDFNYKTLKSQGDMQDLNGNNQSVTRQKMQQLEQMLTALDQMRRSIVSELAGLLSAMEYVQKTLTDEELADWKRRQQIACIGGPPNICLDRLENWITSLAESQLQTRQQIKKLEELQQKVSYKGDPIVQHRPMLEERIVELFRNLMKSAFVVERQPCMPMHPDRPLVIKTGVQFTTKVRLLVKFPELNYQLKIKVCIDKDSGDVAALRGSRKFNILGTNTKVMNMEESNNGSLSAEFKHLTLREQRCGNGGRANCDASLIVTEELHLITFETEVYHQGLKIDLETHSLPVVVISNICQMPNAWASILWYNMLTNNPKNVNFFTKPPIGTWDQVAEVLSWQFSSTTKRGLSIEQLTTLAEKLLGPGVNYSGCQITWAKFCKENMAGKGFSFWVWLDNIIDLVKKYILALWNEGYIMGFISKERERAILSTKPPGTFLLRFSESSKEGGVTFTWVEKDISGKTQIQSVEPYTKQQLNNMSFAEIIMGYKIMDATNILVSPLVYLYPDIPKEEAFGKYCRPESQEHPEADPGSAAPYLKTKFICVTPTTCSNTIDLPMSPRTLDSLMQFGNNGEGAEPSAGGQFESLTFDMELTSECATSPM
Method in brief: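 LNCaP cells stably carrying pSTAT3-TA-luc, in RPMI1640 with 3% DCC-FBS, were treated with compound and then stimulated with 10 ng/mL IL-6 for 24–48 h at 37 °C. Luciferase activity was measured in lysates. A parallel plate measured viability by CellTiter-Glo, with stimulated 0.1% DMSO wells as the positive control.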

Structure (SMILES)	IC50 [1]	IC50 [2]	IC50 [3]	IC50 [4]
COc1cc(OC(F)(F)F)cc(C(C)(C)c2cc(Cl)cc(NC(=O)c3cc4cc(NS(C)(=O)=O)ccc4s3)n2)c1 [Example 150, N-(4-chloro-6-(2-(3-methoxy-5-(trifluoromethoxy)phenyl)propan-2-yl)pyridin-2-yl)-5-(methylsulfonamido)benzo[b]thiophene-2-carboxamide]	0.008 µM	0.016 µM	0.031 µM	0.014 µM
CC(C)Oc1cc(OC(F)(F)F)cc(C(C)(C)c2cc(Cl)cc(NC(=O)c3cc4nc(NS(C)(=O)=O)cnc4s3)c2)c1 [Example 151, N-(3-chloro-5-(2-(3-isopropoxy-5-(trifluoromethoxy)phenyl)propan-2-yl)phenyl)-2-(methylsulfonamido)thieno[2,3-b]pyrazine-6-carboxamide]	> 1.1 µM	0.36 µM	4.7 µM	2.2 µM
CC(C)(c1ccc(Br)cc1)c1cc(Cl)cc(NC(=O)c2cc3cc(NS(C)(=O)=O)ccc3s2)c1 [Example 152, N-(3-(2-(4-bromophenyl)propan-2-yl)-5-chlorophenyl)-5-(methylsulfonamido)benzo[b]thiophene-2-carboxamide]	0.047 µM	0.059 µM	0.21 µM	0.12 µM
COc1ccc(C(C)(C)c2cc(Cl)cc(NC(=O)c3cc4cc(NS(C)(=O)=O)ccc4s3)c2)cc1OC [Example 153, N-(3-chloro-5-(2-(3,4-dimethoxyphenyl)propan-2-yl)phenyl)-5-(methylsulfonamido)benzo[b]thiophene-2-carboxamide]	0.15 µM	0.1 µM	0.39 µM	0.15 µM
COc1ccc(C(C)(C)c2cc(Cl)cc(NC(=O)c3cc4cc(NS(C)(=O)=O)ccc4s3)c2)c(OC)c1 [Example 154, N-(3-chloro-5-(2-(2,4-dimethoxyphenyl)propan-2-yl)phenyl)-5-(methylsulfonamido)benzo[b]thiophene-2-carboxamide]	0.17 µM	0.11 µM	0.34 µM	0.14 µM
COc1ccc(C(C)(C)c2cc(Cl)cc(NC(=O)c3cc4cc(NS(C)(=O)=O)ccc4s3)c2)cc1 [Example 155, N-(3-chloro-5-(2-(4-methoxyphenyl)propan-2-yl)phenyl)-5-(methylsulfonamido)benzo[b]thiophene-2-carboxamide]	0.061 µM	0.034 µM	0.13 µM	0.078 µM
COc1ccc(OC)c(C(C)(C)c2cc(Cl)cc(NC(=O)c3cc4cc(NS(C)(=O)=O)ccc4s3)c2)c1 [Example 156, N-(3-chloro-5-(2-(2,5-dimethoxyphenyl)propan-2-yl)phenyl)-5-(methylsulfonamido)benzo[b]thiophene-2-carboxamide]	0.25 µM	0.14 µM	0.74 µM	0.23 µM
CSc1ccc(C(C)(C)c2cc(Cl)cc(NC(=O)c3cc4cc(NS(C)(=O)=O)ccc4s3)c2)cc1 [Example 157, N-(3-chloro-5-(2-(4-(methylthio)phenyl)propan-2-yl)phenyl)-5-(methylsulfonamido)benzo[b]thiophene-2-carboxamide]	0.06 µM	0.079 µM	0.23 µM	0.063 µM
CC(C)(c1ccc(Cl)cc1)c1cc(Cl)cc(NC(=O)c2cc3cc(NS(C)(=O)=O)ccc3s2)c1 [Example 158, N-(3-chloro-5-(2-(4-chlorophenyl)propan-2-yl)phenyl)-5-(methylsulfonamido)benzo[b]thiophene-2-carboxamide]	0.048 µM	0.056 µM	0.22 µM	0.12 µM
CC(C)(c1cc(Cl)cc(NC(=O)c2cc3cc(NS(C)(=O)=O)ccc3s2)c1)c1ccc(F)c(F)c1 [Example 162, N-(3-chloro-5-(2-(3,4-difluorophenyl)propan-2-yl)phenyl)-5-(methylsulfonamido)benzo[b]thiophene-2-carboxamide]	0.052 µM	0.064 µM	0.2 µM	0.069 µM
CN(c1cc2cc(C(=O)Nc3cc(Cl)cc(C(C)(C)c4ccc(Cl)cc4)c3)sc2cc1F)S(C)(=O)=O [Example 163, N-(3-chloro-5-(2-(4-chlorophenyl)propan-2-yl)phenyl)-6-fluoro-5-(N-methylmethylsulfonamido)benzo[b]thiophene-2-carboxamide]	0.016 µM	0.013 µM	0.019 µM	0.011 µM
CC(C)(c1cc(Cl)cc(NC(=O)c2cc3cc(NS(C)(=O)=O)ccc3s2)c1)N1CCCCC1 [Example 164, N-(3-chloro-5-(2-(piperidin-1-yl)propan-2-yl)phenyl)-5-(methylsulfonamido)benzo[b]thiophene-2-carboxamide]	> 1.1 µM	0.9 µM	> 1.1 µM	0.72 µM
CC(C)(c1cc(Cl)cc(NC(=O)c2cc3cc(NS(C)(=O)=O)ccc3s2)c1)c1ccc[nH]1 [Example 166, N-(3-(2-(1H-pyrrol-2-yl)propan-2-yl)-5-chlorophenyl)-5-(methylsulfonamido)benzo[b]thiophene-2-carboxamide]	0.41 µM	1 µM	> 1.1 µM	0.31 µM
CC(C)(c1cc[nH]c1)c1cc(Cl)cc(NC(=O)c2cc3cc(NS(C)(=O)=O)ccc3s2)c1 [Example 167, N-(3-(2-(1H-pyrrol-3-yl)propan-2-yl)-5-chlorophenyl)-5-(methylsulfonamido)benzo[b]thiophene-2-carboxamide]	> 1.1 µM	2.3 µM	> 1.1 µM	2.6 µM
Cn1ccc(C(C)(C)c2cc(Cl)cc(NC(=O)c3cc4cc(NS(C)(=O)=O)ccc4s3)c2)c1 [Example 168, N-(3-chloro-5-(2-(1-methyl-1H-pyrrol-3-yl)propan-2-yl)phenyl)-5-(methylsulfonamido)benzo[b]thiophene-2-carboxamide]	0.13 µM	0.096 µM	0.39 µM	0.13 µM
Cn1cccc1C(C)(C)c1cc(Cl)cc(NC(=O)c2cc3cc(NS(C)(=O)=O)ccc3s2)c1 [Example 169, N-(3-chloro-5-(2-(1-methyl-1H-pyrrol-2-yl)propan-2-yl)phenyl)-5-(methylsulfonamido)benzo[b]thiophene-2-carboxamide]	0.021 µM	0.073 µM	0.09 µM	0.039 µM
CC(C)(c1cc(Cl)cc(NC(=O)c2cc3cc(NS(C)(=O)=O)ccc3s2)c1)n1cnccc1=O [Example 189]	> 1.1 µM	> 10 µM	> 1.1 µM	> 10 µM
CC(C)(c1cc(Cl)cc(NC(=O)c2cc3cc(NS(C)(=O)=O)ccc3s2)c1)n1ncccc1=O [Example 190, N-(3-chloro-5-(2-(6-oxopyridazin-1(6H)-yl)propan-2-yl)phenyl)-5-(methylsulfonamido)benzo[b]thiophene-2-carboxamide]	> 1.1 µM	> 1.1 µM	> 1.1 µM	2.37 µM
CC(C)Oc1cc(OC(F)(F)F)cc(C(C)(C)c2cc(Cl)cc(NC(=O)c3cc4cc(NC(=O)OC(C)(C)C)ccc4s3)c2)c1 [Example 194, tert-butyl (2-((3-chloro-5-(2-(3-isopropoxy-5-(trifluoromethoxy)phenyl)propan-2-yl)phenyl)carbamoyl)benzo[b]thiophen-5-yl)carbamate]	> 1.1 µM	> 1.1 µM	> 1.1 µM	> 10 µM
COCCS(=O)(=O)Nc1ccc2sc(C(=O)Nc3cc(Cl)cc(C(C)(C)c4cc(OC(C)C)cc(OC(F)(F)F)c4)c3)cc2c1 [Example 195, N-(3-chloro-5-(2-(3-isopropoxy-5-(trifluoromethoxy)phenyl)propan-2-yl)phenyl)-5-((2-methoxyethyl)sulfonamido)benzo[b]thiophene-2-carboxamide]	0.007 µM	0.035 µM	0.029 µM	0.011 µM
CC(C)Oc1cc(OC(F)(F)F)cc(C(C)(C)c2cc(Cl)cc(NC(=O)c3cc4cc(NS(=O)(=O)CC5CCOC5)ccc4s3)c2)c1 (centres unmarked) [Example 196, N-(3-chloro-5-(2-(3-isopropoxy-5-(trifluoromethoxy)phenyl)propan-2-yl)phenyl)-5-(((tetrahydrofuran-3-yl)methyl)sulfonamido)benzo[b]thiophene-2-carboxamide]	0.022 µM	0.084 µM	0.12 µM	0.02 µM
Cc1noc(C)c1S(=O)(=O)Nc1ccc2sc(C(=O)Nc3cc(Cl)cc(C(C)(C)c4cc(OC(C)C)cc(OC(F)(F)F)c4)c3)cc2c1 [Example 199, N-(3-chloro-5-(2-(3-isopropoxy-5-(trifluoromethoxy)phenyl)propan-2-yl)phenyl)-5-((3,5-dimethylisoxazole)-4-sulfonamido)benzo[b]thiophene-2-carboxamide]	0.15 µM	0.34 µM	0.68 µM	0.65 µM
CC(C)Oc1cc(OC(F)(F)F)cc(C(C)(C)c2cc(Cl)cc(NC(=O)c3cc4cc(NS(=O)(=O)c5ccn(C)n5)ccc4s3)c2)c1 [Example 200, N-(3-chloro-5-(2-(3-isopropoxy-5-(trifluoromethoxy)phenyl)propan-2-yl)phenyl)-5-((1-methyl-1H-pyrazole)-3-sulfonamido)benzo[b]thiophene-2-carboxamide]	0.19 µM	0.28 µM	0.3 µM	0.069 µM
